In EP0447324B1, “2,4-Pyrimidinedione derivatives and medicines containing them” (SANOFI, priority 1990, dated 1991):
Entries after “also recorded” stand apart in the source; their conditions may differ.

Test system: peroxydation des lipides membranaires (suspensions de mitochondries)
Test: Inhibition of membrane lipid peroxidation in beef heart mitochondria (malonaldehyde formation, dihydroxyfumaric acid/iron)
Type: biochemical, boeuf
From the text: L'inhibition de la peroxydation lipidique due aux radicaux libres oxygénés, peroxydation particulièrement importante en présence de fer, a été déterminée, in vitro, par la mesure de la quantité d'aldéhyde malonique formée dans des suspensions de mitochondries, mises en présence d'un générateur d'ions superoxydes comme l'acide dihydroxyfumarique.
L'activité inhibitrice de la peroxydation des lipides membranaires des composés a été déterminée comme suit :
a) préparation des mitochondries
On prélève un coeur de boeuf immédiatement après l'abattage de l'animal et le refroidit à 4°C, température à laquelle toutes les opérations suivantes seront effectuées. Le coeur est lavé avec une solution aqueuse tampon à pH 7,4 (TRIS,HCl 10 mM, EDTA 2 mM, KCl 20 mM, saccharose 250 mM) puis les tissus conjonctifs et les graisses sont éliminés. Le muscle est alors haché et le hachis est mis en suspension dans une solution aqueuse tampon à pH 7,4 (TRIS,HCl 10 mM, saccharose 250 mM, EDTA 1 mM) à raison de 700 g de muscle pour 3 litres. Le pH de la suspension est réajusté à 7,4, régulièrement, avant d'isoler le hachis par filtration sur une gaze. […]
Une gamme étalon de malonaldéhyde bis-(diéthylacétal) dilué dans une solution aqueuse de HCl 0,1 N permet de calculer à quelle concentration d'aldéhyde correspond chaque intensité de la fluorescence i. […]

With `O=c1[nH]c(=O)c2[nH]c(=O)[nH]c2[nH]1` [acide urique] the “inhibition de la peroxydation lipidique (result in words)” value was “n'inhibe pas; also recorded: inactif” and the “inhibition de la formation de malonaldéhyde” value (concentration inférieure à 100 »M) was “n'inhibe pas”.
